PMC9316000, “Preclinical Drug Pharmacokinetic, Tissue Distribution and Excretion Profiles of the Novel Limonin Derivate HY-071085 as an Anti-Inflammatory and Analgesic Candidate in Rats and Beagle Dogs” (Pharmaceuticals, 2022)
Read-outs that look alike come from different tables or passages of the source.

How the values were obtained:
[1] = design: method as in earlier work; conditions: Temp 25℃; cited from earlier work
[2] = Plasma protein binding, human plasma; assay type: in vitro ADME; conditions: mean, read-out: plasma protein binding rate (converted)
Experimental: (§1) The PPB rate in dogs was about 40% at different concentrations in the concentration range (50–400 ng/mL), and in rats it was about 75%. The PPB rate in human plasma varied greatly at different concentrations, ranging from 100% at a low drug concentration to 58% at a high drug concentration, as shown in Table 4.

[3] = Pharmacokinetics after repeated-dose intragastric administration in beagle dogs; assay type: in vivo; conditions: R-IG 2.5 mg/kg
Experimental: AUC0-∞ was 195.41 ± 90.03 and 728.57 ± 270.64 h∙ng/mL, respectively (Table 2, Figure 10). […] On the fifth and seventh days before administration, the plasma concentration (valley concentration) was mostly below the lower limit of quantification (1 ng/mL).
In vivo PK profiling in dogs: Beagle dogs (approximately 8–10 kg in weight) were purchased from Jiangsu Yadong Experimental Animal Research Institute Co. Ltd (Nanjing, China). Before the experiment, several beagle dogs were randomly divided into several groups, half males and half females in each group. Four cycles of single-dose administration experiments were carried out, and the cleaning period was 3–5 days. Repeated-dose administration was carried out after the end of four cycles of single-dose administrations and cleaning periods. According to the dosage for the rats, the dosage for the beagle dogs was converted via the body surface area method. The HY-071085 active pharmaceutical ingredients were administered with a dosage volume of 2 mL/kg body weight. The whole-blood samples were centrifuged at 8000 rpm for 5 min, and the plasma samples were separated and stored at –80 °C until the analysis.
(§2) According to the obtained plasma concentration time data, the pharmacokinetic parameters were calculated using Phoenix WinNonlin 8.1 software. The pharmacokinetic parameters—i.e., the area under the curve (AUC), mean residence time (MRT), clearance rate (Cl/F) and steady-state apparent distribution volume (Vss/F)—were calculated by the method of moments, which was estimated according to the following formulae: AUCtn=∑Ci+Ci−1ti−ti−1/2 AUC∞=AUCtn+Cm/λ AUMCtn=∑tiCi+ti−1Ci−1ti−ti−1/2 AUMC∞=AUMCtn+Ctntn/λ+1/λ^2 MRT=AUMC∞/AUC∞ Cl/F=Dose/AUC Vss/F=Cl∗MRT where Ctn is the plasma concentration of tn at the last point after administration, and the elimination rate constant was obtained by ln(concentration) time linear regression.
(§3) Due to the drug having significant individual differences in rats, it could not be uniformly fitted with a PK atrioventricular model; as such, the pharmacokinetic parameters analyzed in this study were calculated using a non-atrioventricular model. The pharmacokinetic parameters are defined as follows: Cmax is the maximum blood concentration after administration and absorption, Tmax is the time required to reach Cmax, t1/2 is the time required to eliminate half of the plasma drug concentration after the drug distribution in the body reaches equilibrium, Cl/F is the apparent clearance rate, AUC0-tn is the area under the blood concentration time curve within the dosing interval, AUC0-∞ is the area under the plasma concentration time curve from 0 to infinity, MRT is the average time that all drug molecules stay in the body, and Vss/F is the steady-state apparent distribution volume, which is the product of the clearance rate and average residence time.

[4] = design: method as in earlier work; conditions: cited from earlier work
[5] = design: method as in earlier work; conditions: Temp 25℃, pH 7.4; cited from earlier work
[6] = Plasma protein binding, rat plasma; assay type: in vitro ADME; conditions: read-out: plasma protein binding rate (converted)
Experimental: as §1

[7] = Pharmacokinetics after repeated-dose intragastric administration in rats; assay type: in vivo, Sprague Dawley rats; conditions: for CL/F at 14 days / MRT at 14 days / CL/F at 28 days / MRT at 28 days / Tmax at 14 days / Cmax at 14 days / half-life at 14 days / Vd/F at 14 days / Cmax at 28 days / Tmax at 28 days / half-life at 28 days / Vd/F at 28 days / AUC(0-inf) / AUC: rat, plasma, po, R-IG 6.5 mg/kg; for Vd/F at 14 days / Vd/F at 28 days: read-out: Vss/F; for decrease of plasma exposure level compared with single administration / AUC(0-inf) / AUC: 6.5 mg/kg; for decrease of plasma exposure level compared with single administration: after 28 days of continuous administration; for plasma drug exposure level as % of the single dose: 28th day of intragastric administration; for AUC: read-out: AUC0-tn
Experimental: Male and female rats were given HY-071085 (6.5 mg/kg) by gastric gavage twice a day for 28 days. […] After 28 days of continuous administration, the plasma exposure levels of the male and female rats decreased by 49% and 85%, respectively, compared with that after a single administration (Figure 6).
In vivo PK profiling in the rats: Sprague Dawley rats (approximately 177–221 g in weight) were purchased from Shanghai Xipur-Bikai Experimental Animal Co., Ltd. (Shanghai, China). Before the experiment, several rats were randomly divided into several groups, half males and half females in each group, fasting but free to drink water for 12 h. The dosage of the rats was dependent on the drug pharmacology: the HY-071085 active pharmaceutical ingredients were administered with a dosage volume of 0.25 mL/100 g body weight. The whole-blood samples were centrifuged at 8000 rpm for 5 min, and the plasma samples were separated and stored at –80 °C until the analysis.
as §2, §3

[8] = both sexes, dog, plasma, po, 7 d
[9] = Sprague Dawley, female rats, 14 days
[10] = Sprague Dawley, female rats, 28 days
[11] = Sprague Dawley, male rats, 14 days
[12] = Sprague Dawley, male rats, 28 days
[13] = Sprague-Dawley, female rats, 14 days
[14] = Sprague-Dawley, female rats, 28 days
[15] = Sprague-Dawley, male rats, 14 days
[16] = Sprague-Dawley, male rats, 28 days
[17] = female, Sprague Dawley, female rats, 14 days
[18] = female, Sprague Dawley, female rats, 28 days
[19] = male, Sprague Dawley, male rats, 14 days
[20] = male, Sprague Dawley, male rats, 28 days

For `CC1(C)OC2CC(=O)OCC23C1C/C(=N\OCCN1CCOCC1)C1(C)C3CC[C@@]2(C)[C@H](c3ccoc3)OC(=O)C3OC312` (stereo partly drawn) [HY-071085, (12S,12aS,E)-12-(furan-3-yl)-6,6,8a,12a-tetramethyl-8-((2-morpholinoethoxy)imino)dodecahydro-1H,3H-oxireno [2,3-d]pyrano [4’,3’:3,3a]isobenzofuro [5,4-f]isochromene-3,10(9aH)-dione], the Intrinsic solubility [1] is given as 4500 µg/mL, the fraction unbound at 100 ng/mL ([2]; 100 ng/mL) is given as 0.267 and the fraction unbound at 200 ng/mL ([2]; 200 ng/mL) is given as 0.325. The fraction unbound at 400 ng/mL ([2]; 400 ng/mL) was 0.384, the “plasma concentration (valley concentration) before administration” value ([3]; fifth and seventh days, mostly below the lower limit of quantification) was under 1 ng/mL and the AUC(0-inf) [3, 8] was 729 ± 271 ng·h/mL. For the same compound, the CL/F at 7 d [3, 8] was 32.3 mL/min/kg, the Cmax at 7 d [3, 8] was 445 ± 135 ng/mL and the MRT at 7 d [3, 8] was 1.58 ± 0.14 h. For the same compound, the Tmax at 7 d [3, 8] was 0.27 ± 0.15 h, the half-life at 7 d [3, 8] was 1.08 ± 0.13 h and the AUC ([3]; both sexes, dog, plasma, po, 7 d, read-out: AUC0-tn) was 723 ± 270 ng·h/mL. The Vd/F at 7 d ([3]; both sexes, dog, plasma, po, 7 d, read-out: Vss/F) was 3.04 ± 1.19 L/kg, the pKa [4] was 6.11 and the LogD [5] was 2.45. It also gave a fraction unbound at 50 ng/mL ([6]; 50 ng/mL, mean) of 0.261, a fraction unbound at 100 ng/mL ([6]; 100 ng/mL, mean) of 0.247 and a fraction unbound at 200 ng/mL ([6]; 200 ng/mL, mean) of 0.228. It also gave a fraction unbound at 400 ng/mL ([6]; 400 ng/mL, mean) of 0.211, a fraction unbound ([6]; rat, rats, concentration range 50–400 ng/mL) of about 0.25 and a CL/F at 14 days [7, 9] of 630 mL/min/kg. It also gave an MRT at 14 days [7, 9] of 2.18 ± 0.27 h, a CL/F at 28 days [7, 10] of 1730 mL/min/kg and an MRT at 28 days [7, 10] of 2.54 ± 1.15 h. For the same compound, the CL/F at 14 days [7, 11] was 836 mL/min/kg, the Tmax at 14 days [7, 11] was 0.65 ± 0.38 h and the CL/F at 28 days [7, 12] was 1860 mL/min/kg. It also gave an MRT at 28 days [7, 12] of 1.74 ± 0.86 h, a Cmax at 14 days [7, 13] of 125 ± 80.3 ng/mL and a Tmax at 14 days [7, 13] of 0.68 ± 0.75 h. The half-life at 14 days [7, 13] was 1.38 ± 0.24 h, the Vd/F at 14 days [7, 13] was 80 ± 51 L/kg and the Cmax at 28 days [7, 14] was 37.2 ± 19.9 ng/mL. For the same compound, the Tmax at 28 days [7, 14] was 0.33 ± 0.16 h, the half-life at 28 days [7, 14] was 1.75 ± 1.14 h and the Vd/F at 28 days [7, 14] was 292 ± 251 L/kg. The Cmax at 14 days [7, 15] was 63.2 ± 11.2 ng/mL, the MRT at 14 days [7, 15] was 2.26 ± 0.33 h and the half-life at 14 days [7, 15] was 1.52 ± 0.23 h. The Vd/F at 14 days [7, 15] was 108 ± 13.8 L/kg, the Cmax at 28 days [7, 16] was 38.9 ± 12.7 ng/mL and the Tmax at 28 days [7, 16] was 0.6 ± 0.78 h. The half-life at 28 days [7, 16] was 1.11 ± 0.41 h, the Vd/F at 28 days [7, 16] was 169 ± 35.2 L/kg and the “decrease of plasma exposure level compared with single administration” value ([7]; female rats) was 85%. The “plasma drug exposure level as % of the single dose” value ([7]; female rats) was “about 15%”, the AUC(0-inf) [7, 17] was 233 ± 159 ng·h/mL and the AUC [7, 17] was 229 ± 159 ng·h/mL. The AUC(0-inf) [7, 18] was 70.2 ± 28.8 ng·h/mL, the AUC [7, 18] was 65.8 ± 28.9 ng·h/mL and the “decrease of plasma exposure level compared with single administration” value ([7]; male rats) was 49%. For the same compound, the “plasma drug exposure level as % of the single dose” value ([7]; male rats) was “about 50%”, the AUC(0-inf) [7, 19] was 133 ± 22.3 ng·h/mL and the AUC [7, 19] was 127 ± 22.4 ng·h/mL. The AUC(0-inf) [7, 20] was 59.9 ± 10.5 ng·h/mL and the AUC [7, 20] was 55 ± 8.82 ng·h/mL.
